In ChEMBL document CHEMBL4507291 (2021) one finds residual activity data, which are given here for 2 compounds.

Test [1] concerns the target Serine/threonine-protein kinase haspin (Homo sapiens) (UniProt Q8TF76).
Test [2] addresses Calcium/calmodulin-dependent protein kinase kinase 1 (Homo sapiens) (UniProt Q8N5S9).
Test [3] has as its target Tyrosine-protein kinase JAK1 (Homo sapiens) (UniProt P23458).
The target of test [4] is Mitogen-activated protein kinase 9 (Homo sapiens) (UniProt P45984).
Chain of Mitogen-activated protein kinase 9 (Homo sapiens) (P45984 whole entry, looked up, canonical isoform): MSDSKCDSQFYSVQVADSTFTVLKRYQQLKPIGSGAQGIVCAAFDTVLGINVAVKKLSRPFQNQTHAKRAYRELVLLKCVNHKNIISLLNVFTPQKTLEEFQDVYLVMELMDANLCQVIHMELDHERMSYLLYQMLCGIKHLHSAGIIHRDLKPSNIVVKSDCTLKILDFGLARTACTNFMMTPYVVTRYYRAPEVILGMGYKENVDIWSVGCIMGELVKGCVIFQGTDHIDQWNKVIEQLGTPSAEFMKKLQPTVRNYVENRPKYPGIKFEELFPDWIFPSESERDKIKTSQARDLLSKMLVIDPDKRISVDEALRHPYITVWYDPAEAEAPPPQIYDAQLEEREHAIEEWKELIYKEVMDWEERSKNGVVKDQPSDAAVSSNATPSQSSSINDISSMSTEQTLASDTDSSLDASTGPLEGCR
Test [5] addresses Casein kinase I isoform alpha-like (Homo sapiens) (UniProt Q8N752).
The subject of test [6] is Receptor-type tyrosine-protein kinase FLT3 (Homo sapiens), P36888 [UNDEFINED MUTATION].
The target in test [7] is Interleukin-1 receptor-associated kinase 4 (Homo sapiens) (UniProt Q9NWZ3).
The subject of test [8] is Tyrosine-protein kinase ABL1 (Homo sapiens), P00519 [M351T].
The target of test [9] is Phosphatidylinositol 4-phosphate 3-kinase C2 domain-containing subunit beta (Homo sapiens) (UniProt O00750).
Test [10] has as its target Mitogen-activated protein kinase kinase kinase 12 (Homo sapiens) (UniProt Q12852).
Test [11] relates to Tyrosine-protein kinase ABL1 (Homo sapiens), P00519 [T315I].
Test [12] has as its target Phosphorylase b kinase regulatory subunit alpha, liver isoform (Homo sapiens) (UniProt P46019).
Test [13] deals with Dual specificity mitogen-activated protein kinase kinase 7 (Homo sapiens) (UniProt O14733).
Test [14] relates to Phosphatidylinositol 4,5-bisphosphate 3-kinase catalytic subunit alpha isoform (Homo sapiens), P42336 [H1047L].
Test [15] concerns the target T1, Serine/threonine-protein kinase TAO3 (Homo sapiens) (UniProt Q9H2K8).
T1 sequence (whole entry): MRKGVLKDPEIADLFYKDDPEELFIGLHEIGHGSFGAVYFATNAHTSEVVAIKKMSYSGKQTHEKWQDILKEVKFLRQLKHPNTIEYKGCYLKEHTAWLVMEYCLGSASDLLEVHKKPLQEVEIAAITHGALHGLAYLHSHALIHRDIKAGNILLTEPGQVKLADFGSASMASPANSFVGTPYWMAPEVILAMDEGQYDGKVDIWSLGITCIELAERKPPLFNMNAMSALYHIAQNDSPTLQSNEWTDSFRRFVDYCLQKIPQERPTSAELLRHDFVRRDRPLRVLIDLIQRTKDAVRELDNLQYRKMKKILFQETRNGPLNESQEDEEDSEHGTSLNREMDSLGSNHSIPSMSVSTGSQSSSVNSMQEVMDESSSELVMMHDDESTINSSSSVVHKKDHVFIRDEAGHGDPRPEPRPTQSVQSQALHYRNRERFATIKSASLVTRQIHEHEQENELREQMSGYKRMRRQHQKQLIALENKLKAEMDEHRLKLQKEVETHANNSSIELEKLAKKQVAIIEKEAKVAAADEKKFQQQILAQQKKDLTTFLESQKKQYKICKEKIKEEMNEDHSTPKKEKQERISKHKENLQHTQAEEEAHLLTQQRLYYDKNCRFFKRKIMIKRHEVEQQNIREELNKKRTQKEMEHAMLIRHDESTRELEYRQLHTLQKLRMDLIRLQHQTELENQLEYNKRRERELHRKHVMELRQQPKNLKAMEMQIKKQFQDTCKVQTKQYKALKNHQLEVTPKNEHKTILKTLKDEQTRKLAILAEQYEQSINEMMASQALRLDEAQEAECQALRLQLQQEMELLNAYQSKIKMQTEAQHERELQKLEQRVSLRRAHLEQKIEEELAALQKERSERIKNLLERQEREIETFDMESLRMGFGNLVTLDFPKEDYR

Test [16] addresses Interleukin-1 receptor-associated kinase 1 (Homo sapiens) (UniProt P51617).
In test [17] the target is T2, Inhibitor of nuclear factor kappa-B kinase subunit alpha (Homo sapiens) (UniProt O15111).
T2 sequence (whole entry): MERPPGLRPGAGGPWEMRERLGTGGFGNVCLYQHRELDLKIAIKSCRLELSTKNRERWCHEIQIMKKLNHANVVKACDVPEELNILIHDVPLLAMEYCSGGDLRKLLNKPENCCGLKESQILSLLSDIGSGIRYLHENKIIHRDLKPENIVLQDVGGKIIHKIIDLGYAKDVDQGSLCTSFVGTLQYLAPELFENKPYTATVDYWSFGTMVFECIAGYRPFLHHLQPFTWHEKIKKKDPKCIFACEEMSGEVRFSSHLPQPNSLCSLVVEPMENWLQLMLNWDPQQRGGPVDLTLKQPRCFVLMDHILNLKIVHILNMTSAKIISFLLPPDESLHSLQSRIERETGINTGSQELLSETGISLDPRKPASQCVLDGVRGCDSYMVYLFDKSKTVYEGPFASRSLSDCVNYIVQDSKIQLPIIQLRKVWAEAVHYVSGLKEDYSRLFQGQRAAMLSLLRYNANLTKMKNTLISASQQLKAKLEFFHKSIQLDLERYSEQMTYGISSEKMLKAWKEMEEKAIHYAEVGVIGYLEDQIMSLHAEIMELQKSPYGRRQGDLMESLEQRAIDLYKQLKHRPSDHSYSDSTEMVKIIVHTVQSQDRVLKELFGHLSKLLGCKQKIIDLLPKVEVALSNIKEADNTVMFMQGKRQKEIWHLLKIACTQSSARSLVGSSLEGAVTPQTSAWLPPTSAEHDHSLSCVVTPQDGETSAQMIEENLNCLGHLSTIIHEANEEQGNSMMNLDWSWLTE

Test [18] concerns the target Phosphatidylinositol 4-kinase beta (Homo sapiens) (UniProt Q9UBF8).
Test [19] addresses Ribosomal protein S6 kinase beta-1 (Homo sapiens) (UniProt P23443).
Test [20] has as its target Receptor tyrosine-protein kinase erbB-3 (Homo sapiens) (UniProt P21860).
The target of test [21] is Proto-oncogene tyrosine-protein kinase Src (Homo sapiens) (UniProt P12931).
Test [22] deals with Ribosomal protein S6 kinase alpha-4 (Homo sapiens) (UniProt O75676).
Chain of Ribosomal protein S6 kinase alpha-4 (Homo sapiens) (O75676 whole entry, looked up): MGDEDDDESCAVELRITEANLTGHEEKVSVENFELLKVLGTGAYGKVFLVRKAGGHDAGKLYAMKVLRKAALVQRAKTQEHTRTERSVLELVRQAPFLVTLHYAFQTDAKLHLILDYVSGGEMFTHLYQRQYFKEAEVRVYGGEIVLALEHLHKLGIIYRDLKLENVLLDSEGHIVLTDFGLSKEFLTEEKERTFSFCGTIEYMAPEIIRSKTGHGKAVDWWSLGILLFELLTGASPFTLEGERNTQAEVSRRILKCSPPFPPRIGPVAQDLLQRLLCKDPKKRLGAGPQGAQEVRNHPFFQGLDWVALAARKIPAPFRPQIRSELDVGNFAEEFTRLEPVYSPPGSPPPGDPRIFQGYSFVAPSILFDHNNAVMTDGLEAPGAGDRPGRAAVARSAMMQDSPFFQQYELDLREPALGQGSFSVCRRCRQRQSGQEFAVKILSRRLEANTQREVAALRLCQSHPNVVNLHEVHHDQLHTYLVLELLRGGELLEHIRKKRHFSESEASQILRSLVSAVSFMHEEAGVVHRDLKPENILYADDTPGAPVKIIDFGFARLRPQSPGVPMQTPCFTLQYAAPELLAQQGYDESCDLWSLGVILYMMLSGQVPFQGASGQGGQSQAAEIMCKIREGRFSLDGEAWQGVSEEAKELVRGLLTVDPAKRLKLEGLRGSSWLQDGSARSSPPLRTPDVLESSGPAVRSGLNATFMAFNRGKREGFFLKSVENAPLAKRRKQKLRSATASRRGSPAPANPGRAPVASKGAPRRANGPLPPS
Where [23] appears, read: Compound concentration 1000.0 nM.
[24] abbreviates: Compound concentration 100.0 nM.

Chain of Phosphorylase b kinase regulatory subunit alpha, liver isoform (Homo sapiens) (P46019 whole entry, canonical isoform): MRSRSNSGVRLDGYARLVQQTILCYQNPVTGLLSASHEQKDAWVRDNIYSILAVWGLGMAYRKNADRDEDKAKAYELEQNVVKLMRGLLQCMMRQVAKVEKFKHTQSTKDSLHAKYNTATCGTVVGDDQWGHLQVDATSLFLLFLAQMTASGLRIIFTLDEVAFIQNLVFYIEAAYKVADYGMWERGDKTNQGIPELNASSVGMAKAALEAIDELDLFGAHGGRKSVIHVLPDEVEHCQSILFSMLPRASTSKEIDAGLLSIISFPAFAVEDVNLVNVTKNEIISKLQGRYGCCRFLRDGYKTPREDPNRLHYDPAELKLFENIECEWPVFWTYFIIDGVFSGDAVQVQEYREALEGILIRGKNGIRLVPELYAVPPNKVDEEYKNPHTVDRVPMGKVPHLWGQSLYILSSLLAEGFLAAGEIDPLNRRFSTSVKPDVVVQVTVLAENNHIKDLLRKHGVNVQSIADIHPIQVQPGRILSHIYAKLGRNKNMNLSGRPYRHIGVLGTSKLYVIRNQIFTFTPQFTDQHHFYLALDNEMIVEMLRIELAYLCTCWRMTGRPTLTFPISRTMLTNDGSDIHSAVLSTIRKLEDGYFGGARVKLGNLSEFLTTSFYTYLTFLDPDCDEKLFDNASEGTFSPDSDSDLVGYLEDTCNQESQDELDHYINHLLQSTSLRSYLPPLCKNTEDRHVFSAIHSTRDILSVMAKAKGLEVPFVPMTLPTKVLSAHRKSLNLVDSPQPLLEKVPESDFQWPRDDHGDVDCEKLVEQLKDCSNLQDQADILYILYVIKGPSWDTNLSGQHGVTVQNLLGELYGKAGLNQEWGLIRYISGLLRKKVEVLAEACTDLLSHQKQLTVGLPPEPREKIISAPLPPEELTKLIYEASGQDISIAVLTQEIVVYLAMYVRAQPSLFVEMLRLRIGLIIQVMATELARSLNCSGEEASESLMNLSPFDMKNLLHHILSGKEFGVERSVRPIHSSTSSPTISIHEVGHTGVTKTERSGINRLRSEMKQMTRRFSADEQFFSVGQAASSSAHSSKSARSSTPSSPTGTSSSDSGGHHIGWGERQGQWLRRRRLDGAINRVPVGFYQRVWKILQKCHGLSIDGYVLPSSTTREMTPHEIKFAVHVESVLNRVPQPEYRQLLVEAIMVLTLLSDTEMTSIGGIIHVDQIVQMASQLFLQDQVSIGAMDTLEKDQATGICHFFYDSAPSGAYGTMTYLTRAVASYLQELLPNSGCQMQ
Chain of Receptor-type tyrosine-protein kinase FLT3 (Homo sapiens), P36888 [UNDEFINED MUTATION] (P36888 whole entry, looked up, change not shown): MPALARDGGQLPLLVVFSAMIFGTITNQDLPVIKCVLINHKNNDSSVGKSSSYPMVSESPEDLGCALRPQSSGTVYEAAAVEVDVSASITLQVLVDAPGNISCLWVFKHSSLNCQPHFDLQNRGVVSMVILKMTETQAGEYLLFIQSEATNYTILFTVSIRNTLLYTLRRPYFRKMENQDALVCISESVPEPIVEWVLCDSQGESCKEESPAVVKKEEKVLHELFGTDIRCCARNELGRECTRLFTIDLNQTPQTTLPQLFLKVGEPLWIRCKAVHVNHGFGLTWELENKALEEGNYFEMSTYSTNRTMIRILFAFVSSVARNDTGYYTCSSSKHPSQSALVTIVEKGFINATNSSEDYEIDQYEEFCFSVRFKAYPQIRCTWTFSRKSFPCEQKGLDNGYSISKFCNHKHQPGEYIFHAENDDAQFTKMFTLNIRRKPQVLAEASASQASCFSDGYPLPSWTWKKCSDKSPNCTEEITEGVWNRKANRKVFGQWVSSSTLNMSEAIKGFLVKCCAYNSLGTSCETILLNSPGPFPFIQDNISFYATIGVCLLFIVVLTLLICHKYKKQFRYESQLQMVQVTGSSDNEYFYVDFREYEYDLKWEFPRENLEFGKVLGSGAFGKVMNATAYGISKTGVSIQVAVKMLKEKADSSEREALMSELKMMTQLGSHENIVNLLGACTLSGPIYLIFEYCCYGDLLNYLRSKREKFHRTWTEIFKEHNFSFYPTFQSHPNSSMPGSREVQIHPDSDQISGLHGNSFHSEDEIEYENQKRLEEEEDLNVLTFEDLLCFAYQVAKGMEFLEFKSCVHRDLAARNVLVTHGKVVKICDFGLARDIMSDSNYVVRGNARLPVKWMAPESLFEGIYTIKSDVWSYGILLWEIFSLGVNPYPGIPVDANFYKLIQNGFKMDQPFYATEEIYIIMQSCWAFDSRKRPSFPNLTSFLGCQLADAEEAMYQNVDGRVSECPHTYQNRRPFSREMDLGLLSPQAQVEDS
Chain of Ribosomal protein S6 kinase beta-1 (Homo sapiens) (P23443 whole entry, looked up): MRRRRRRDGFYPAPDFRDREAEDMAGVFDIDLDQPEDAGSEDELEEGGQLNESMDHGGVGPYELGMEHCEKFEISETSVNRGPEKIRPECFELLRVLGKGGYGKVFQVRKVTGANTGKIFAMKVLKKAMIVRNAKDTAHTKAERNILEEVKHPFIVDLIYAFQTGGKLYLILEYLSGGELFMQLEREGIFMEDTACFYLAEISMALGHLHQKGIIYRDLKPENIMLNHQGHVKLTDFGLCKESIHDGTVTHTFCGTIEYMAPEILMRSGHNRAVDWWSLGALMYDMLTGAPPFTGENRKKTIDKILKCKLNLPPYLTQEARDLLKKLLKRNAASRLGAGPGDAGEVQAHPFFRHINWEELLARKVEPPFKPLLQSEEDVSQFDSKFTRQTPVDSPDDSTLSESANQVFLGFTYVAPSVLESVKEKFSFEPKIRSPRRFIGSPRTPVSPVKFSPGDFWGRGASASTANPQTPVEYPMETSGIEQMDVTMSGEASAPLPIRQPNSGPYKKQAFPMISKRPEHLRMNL
Chain of Interleukin-1 receptor-associated kinase 1 (Homo sapiens) (P51617 whole entry, looked up): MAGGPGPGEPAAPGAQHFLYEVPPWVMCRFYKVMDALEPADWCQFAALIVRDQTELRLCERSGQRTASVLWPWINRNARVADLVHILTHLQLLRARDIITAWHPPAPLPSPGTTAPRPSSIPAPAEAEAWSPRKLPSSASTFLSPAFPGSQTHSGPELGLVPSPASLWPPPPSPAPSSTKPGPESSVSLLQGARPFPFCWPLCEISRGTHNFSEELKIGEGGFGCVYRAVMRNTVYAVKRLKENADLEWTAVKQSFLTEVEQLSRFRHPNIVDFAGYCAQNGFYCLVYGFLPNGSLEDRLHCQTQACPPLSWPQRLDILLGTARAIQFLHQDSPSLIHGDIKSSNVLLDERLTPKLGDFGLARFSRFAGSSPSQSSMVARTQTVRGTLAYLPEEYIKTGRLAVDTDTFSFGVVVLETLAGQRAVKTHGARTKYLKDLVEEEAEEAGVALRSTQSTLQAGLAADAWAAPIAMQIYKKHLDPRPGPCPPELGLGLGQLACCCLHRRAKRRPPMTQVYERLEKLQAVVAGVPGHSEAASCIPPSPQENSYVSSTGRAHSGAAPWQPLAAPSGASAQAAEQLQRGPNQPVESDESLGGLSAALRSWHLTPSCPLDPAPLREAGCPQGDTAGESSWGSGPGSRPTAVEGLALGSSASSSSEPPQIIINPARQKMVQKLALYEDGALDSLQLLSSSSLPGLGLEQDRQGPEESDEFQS
Chain of Casein kinase I isoform alpha-like (Homo sapiens) (Q8N752 whole entry, canonical isoform): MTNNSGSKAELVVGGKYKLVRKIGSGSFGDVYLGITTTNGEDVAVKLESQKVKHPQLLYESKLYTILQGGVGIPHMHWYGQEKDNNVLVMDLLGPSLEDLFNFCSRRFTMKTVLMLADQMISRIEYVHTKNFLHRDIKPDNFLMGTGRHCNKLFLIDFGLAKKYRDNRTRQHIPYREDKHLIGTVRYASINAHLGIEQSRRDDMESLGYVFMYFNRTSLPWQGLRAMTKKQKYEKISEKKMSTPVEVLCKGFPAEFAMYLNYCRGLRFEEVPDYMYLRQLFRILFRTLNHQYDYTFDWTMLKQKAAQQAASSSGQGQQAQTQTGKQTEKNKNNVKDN

Consider `C[C@@H]1CN(c2cc(-c3nn(C)c4ccc(OC5(C)CC5)cc34)ncn2)C[C@H](C)O1` [MLi-2-NC], for which the residual activity was 99% in test [1] (setting [23]); 80% in test [2] (setting [23]); 100% in test [3] (setting [23]); 78% in test [4] (setting [23]); 78% in test [5] (setting [23]); 88% in [6] (setting [23]). In addition, the residual activity in [7] (setting [23]) is 76%; in test [8] (setting [23]), 91%; in [9] (setting [23]), 70%; in test [10] (setting [23]), 61%; in test [11] (setting [23]), 74%; in [12] (setting [23]), 100%. Further, the residual activity in [13] (setting [23]) is 74%; in test [14] (setting [23]), 83%; in test [15] (setting [23]), 35%; in [16] (setting [23]), 67%; in test [17] (setting [23]) it was 75%; in test [18] (setting [23]), 89%. Also, the residual activity in test [19] (setting [23]) was 100%; in test [20] (setting [23]), 57%; in test [21] (setting [23]), 100%; in test [22] (setting [23]) it was 100%.

For `C[C@@H]1CN(c2cc(-c3n[nH]c4ccc(OC5(C)CC5)cc34)ncn2)C[C@H](C)O1` [MLi-2], the residual activity is 74% in [1] (setting [24]); 100% in test [2] (setting [24]); 88% in [3] (setting [24]); 72% in [4] (setting [24]); 100% in [5] (setting [24]); 75% in test [6] (setting [24]). The residual activity in test [7] (setting [24]) was 90%; in [8] (setting [24]), 95%; in test [9] (setting [24]) it was 66%; in test [10] (setting [24]), 82%; in [11] (setting [24]), 86%; in test [12] (setting [24]), 91%. The residual activity in [13] (setting [24]) is 77%; in [14] (setting [24]), 87%; in test [15] (setting [24]) it was 69%; in test [16] (setting [24]), 79%; in test [17] (setting [24]) it was 76%; in [18] (setting [24]) it was 100%. The residual activity in test [19] (setting [24]) is 73%; in test [20] (setting [24]), 100%; in test [21] (setting [24]) it was 81%; in test [22] (setting [24]) it was 100%.
